In US20220354815A1, “OKN-007 AS A THERAPEUTIC AGENT” (Oklahoma Medical Research Foundation, priority 2019, published 2022):

Columns and labels:
Sodl G93A mutant mice [1] = assay: MRI (diffusion, perfusion) and MR spectroscopy of spinal cord in G93A mice; assay type: in vivo, mouse
Method: (§1) ALS is a debilitating disease that according to the ALS Association affects two per 100,000 people in the USA. There is no cure and the average survival time after diagnosis is three years. In this study, the inventors investigated the impact of treatment with […], an antioxidant, on ALS progression. Female Sodl G93A mutant mice, an established mouse model of ALS, and wildtype (wt) mice were treated with OKN-077 for three months starting at the age of 60 days, before the mice became symptomatic, and compared to age matched untreated controls (both transgenic and wt). Disease progression measured by monitoring disease score on a scale of 1-5 (based on hind limb paralysis and dysfunction) was delayed in the treated mice. All treated mice were at stage 2 at the time of sacrifice at 145 days (end stage disease is ˜160 days), while untreated transgenic controls had progressed to stage ≥2. […] The untreated transgenic control mice had on average 10.7 ±2.1 alpha motor neurons per ventral horn, while the treated transgenic mice had 17.5 ±4.5 alpha motor neurons (a 64% increase). […] These findings indicate that OKN-077 may potentially be considered as a possible therapeutic agent for ALS, and certainly warrants further investigation.

CS99 cells = assay: Endometrial cancer in vivo, CS99 cells i.p. in athymic nude mice (survival, MRI tumor volume); design: species or system mouse
Method: CS99 cells were obtained from K. Moxley (OUHSC). 10^6 cells were injected i.p. into Athymic Nude Foxnlnu mice (Envigo) mice. Gd-DTPA (MRI contrast agent; administered i.v. via a tail-vein-catheter) was used to detect tumors. OKN-077 was administered 150 mg/kg daily in drinking water.

CD44v6 = CD44v6 biomarker regulation; conditions: biomarker directly associated with metastasis; stated without data
Sodl G93A mutant mice [2] = assay: Spinal cord histology (NeuN motor neuron counts, microglia, astrocytes) in G93A mice; assay type: in vivo, mouse
Method: as §1

normal cells = assay: Effects on normal cells; conditions: stated without data
Sodl G93A mutant mice [3] = assay: ALS disease progression score in Sod1 G93A mutant mice; assay type: in vivo, mouse
Method: as §1

TGF-β1 = TGF-β1 pathway expression; conditions: gene not directly down-regulated; stated without data
[4] = tested on: orthotopic GBM xenografts; conditions: cited from earlier work
[5] = Towner et al., Translational Oncology 2019
[6] = previous assessment by the inventors

CC(C)(C)/[N+]([O-])=C/c1ccc(S(=O)(=O)[O-])cc1S(=O)(=O)[O-].[Na+].[Na+] [OKN-077, 2,4-Disulfonyl-N-Tert-Butylnitrone, 2,4-disulfonyl α-phenyl tertiary butyl nitrone]
Myo-inositol (Myo-Ins)/creatine ratio by MRS (Sodl G93A mutant mice [1]; stated for ALS c (non-treated) vs ALS t (treated) mice, FIG. 6C): significant decrease
Spinal cord metabolite myo-inositol (Sodl G93A mutant mice [1]; treated vs untreated): significantly elevated
Apparent diffusion coefficient (ADC) in the lumbar region of the spinal cord (Sodl G93A mutant mice [1]; treated vs untreated, p<0.001): decreased
Relative tissue blood flow in the spinal cord (Sodl G93A mutant mice [1]; treated vs untreated, p<0.01): significantly increase
ADC in the surrounding muscle tissue (Sodl G93A mutant mice [1]; treated vs untreated, p<0.05): increased
Survival of tumor-bearing mice compared to untreated (UT) (CS99 cells; 150 mg/kg daily in drinking water, FIG. 7): significant increase
Tumor size on MR images at 21 days after CS99 cell implantations (CS99 cells; compared to untreated tumors, FIG. 8): consistently small tumors
Tumor volumes compared to UT mice (CS99 cells; ~21 days after cell implantation, p<0.0001, FIG. 9): significantly decrease
CD44v6 regulation (CD44v6): downregulates
Motor neuron loss (Sodl G93A mutant mice [2]; NeuN stained ventral horn, treated vs untreated G93A p=0.0197): prevents
Astrocyte activation (Sodl G93A mutant mice [2]; mouse, in vivo): didn't affect
Alpha motor neurons per ventral horn (Sodl G93A mutant mice [2]; treated transgenic mice, untreated transgenic 10.7 ±2.1): 17.5 ±4.5
Microglia activation (Sodl G93A mutant mice [2]; treated vs untreated G93A mice): decreases
Ramified, non-activated microglia (Sodl G93A mutant mice [2]; treated vs untreated G93A mice, p=0.0026): significantly more
Increase in alpha motor neurons versus untreated transgenic mice (Sodl G93A mutant mice [2]; treated vs untreated transgenic mice): 64%
Astrocyte proliferation (Sodl G93A mutant mice [2]; treatment p=0.23, FIGS. 5B and 5C): doesn't affect
Microglia proliferation (number of Ibal+ cells) (Sodl G93A mutant mice [2]; two-way ANOVA, treatment p=0.0244, FIG. 5A): treatment effect
Adverse effects on normal cells (normal cells): no adverse effects
Delay in reaching the score of 2 versus untreated G93A mice (Sodl G93A mutant mice [3]; FIG. 2C): around 14 days
Highest disease score reached (Sodl G93A mutant mice [3]; FIG. 2D, untreated G93A mice reached score 3 around 136 days of age): ≤ 2
Disease progression (disease score based on hind limb paralysis and dysfunction) (Sodl G93A mutant mice [3]; female G93A mice treated three months from age 60 days, vs untreated transgenic controls): delayed
Disease stage at the time of sacrifice (Sodl G93A mutant mice [3]; sacrifice at 145 days, scale of 1-5, all treated mice): 2
Disease onset (Sodl G93A mutant mice [3]; treated vs untreated G93A mice (FIG. 2B)): doesn't delay
TGF-β1 protein expression (TGF-β1): decreased
TMZ-Resistant Glioblastoma (GBM) tumor growth [4, 5]: suppresses
Temozolomide (TMZ) sensitivity [4, 5]: increases
Survival in orthotopic GBM xenografts [4, 6]: increasing
Tumor volumes in orthotopic GBM xenografts [4, 6]: decreasing
